In patent US11466012B2, “Tetrahydroisoquinoline compounds” (ALLINKY BIOPHARMA, priority 2018, dated 2022):

Experiments:
Assay type in all cases: cell-based
[1] = system: A549 lung carcinoma cell line bearing KRas^G12S oncogenic mutation; experiment: Cell proliferation inhibition (MTS), A549; conditions: Homo sapiens
Method: (§1) • Cell line #1: A549. Lung carcinoma cell line bearing KRas^G12S oncogenic mutation • Cell line #2: H358. non-small cell lung cancer line bearing KRas^G12C oncogenic mutation • Cell line #3: PANC-1. epithelioid carcinoma of the pancreas cell line bearing KRas^G12D oncogenic mutation • Cell line #4: RPMI. myeloma cell line bearing KRas^G12A oncogenic mutation
(§2) Cell lines were cultured in DMEM or RPMI-1640 supplemented with FBS 10%. In order to assess the antiproliferative effect of compounds, cells were seeded at a density of 1.8×10^3, 6.2×10^3, 7.8×10^3, 21×10^3 and 2×10^3 cells/cm^2, respectively, in tissue culture microplates and were incubated in humidified atmosphere at 5% CO2. 24 h later, compounds dissolved in DMSO 100% were added for different final concentrations ranging between 0.1 and 50 μM for a final DMSO concentration of 0.5% and the plates were incubated for another 72 h. After incubation, proliferation was quantified using CellTiter 96® Aqueous Non-Radioactive Cell Proliferation Assay-MTS (Promega #G5421) following manufacturer instructions. Amount of 490 nm absorbance is directly proportional to the number of living cells. Absorbance was recorded with a BMG Fluostar Optima Microplate Reader and normalized to control with vehicle.

[2] = system: RPMI-8226 myeloma cell line bearing KRas^G12A oncogenic mutation; experiment: Cell proliferation inhibition (MTS), RPMI-8226; conditions: Homo sapiens
Method: as §1, §2

[3] = system: H358 non-small cell lung cancer line bearing KRas^G12C oncogenic mutation; experiment: Cell proliferation inhibition (MTS), H358; conditions: Homo sapiens, NCI-H358
Method: as §1, §2

[4] = system: PANC-1 epithelioid carcinoma of the pancreas cell line bearing KRas^G12D oncogenic mutation; experiment: Cell proliferation inhibition (MTS), PANC-1; conditions: Homo sapiens
Method: as §1, §2

[5] = 72 h incubation, MTS, compounds 1-53, median from experimental results
[6] = compounds 54-63, based on estimations and/or preliminary experimental results

| IC50 [1, 5] [nM] | IC50 [2, 5] [nM] | IC50 [3, 5] [nM] | IC50 [4, 5] [nM] | IC50 [1, 6] [nM] | IC50 [2, 6] [nM] | IC50 [3, 6] [nM] | IC50 [4, 6] [nM] | SMILES |
| --- | --- | --- | --- | --- | --- | --- | --- | --- |
| > 5000 | 480 | 7240 | 12000 | – | – | – | – | COc1cc2c(cc1OCCc1cccc(O)c1)C(c1ccc(C)cc1C)N(C(=O)NCc1ccncc1)CC2 (centres unmarked) [Compound 16] |
| – | – | – | – | 600 | 600 | 600 | 500 | COc1cc2c(cc1OCCc1cccnc1C)C(c1ccc(C)cc1C)N(C(=O)NCc1cocn1)CC2 (centres unmarked) [Compound 58] |
| – | – | – | – | 600 | 500 | 700 | 700 | COc1cc2c(cc1OCCc1nccnc1OC)C(c1ccc(C)cc1C)N(C(=O)NCc1cocn1)CC2 (centres unmarked) [Compound 62] |
| 2070 | 1910 | 2110 | 1830 | – | – | – | – | COc1cc2c(cc1OCCc1cccc(C(=O)O)c1)C(c1ccc(C)cc1C)N(C(=O)NCc1cocn1)CC2 (centres unmarked) [Compound 31] |
| 1970 | 1210 | 1660 | 1590 | – | – | – | – | COc1cc2c(cc1OCCc1cccc(OC(C)=O)c1)C(c1ccc(C)cc1C)N(C(=O)NCc1cocn1)CC2 (centres unmarked) [Compound 3] |
| 600 | 500 | 700 | 700 | – | – | – | – | COc1cc2c(cc1OCCc1cnccn1)C(c1ccc(C)cc1C)N(C(=O)NCc1cocn1)CC2 (centres unmarked) [Compound 53] |
| 8250 | 1800 | 12100 | 17300 | – | – | – | – | CCC(=O)CCN1CCc2cc(OC)c(OCc3cccc(O)c3)cc2C1c1ccc(C)cc1Cl (centres unmarked) [Compound 2] |
| – | – | – | – | 600 | 600 | 600 | 500 | COc1ccc(CCOc2cc3c(cc2OC)CCN(C(=O)NCc2cocn2)C3c2ccc(C)cc2C)cn1 (centres unmarked) [Compound 55] |
| 430 | 220 | 1090 | 420 | – | – | – | – | Cc1ccc(C2c3cc(OCCc4cccnc4)c(Cl)cc3CCN2C(=O)NCc2cocn2)c(C)c1 (centres unmarked) [Compound 38] |
| 760 | 690 | 960 | 680 | – | – | – | – | COc1cc2c(cc1OCCc1cccc(O)c1)C(c1ccc(C)cc1Cl)N(C(=O)NCc1cocn1)CC2 (centres unmarked) [Compound 29] |
| 10100 | 2670 | > 20000 | 29700 | – | – | – | – | CCC(=O)CCN1CCc2cc(OC)c(OCC(=O)c3cccc(C(=O)OC)c3)cc2C1c1ccc(C)cc1Cl (centres unmarked) [Compound 4] |
| 890 | 820 | 650 | 600 | – | – | – | – | COc1cc2c(cc1OCCc1ccccc1)C(c1ccc(C)cc1C)N(C(=O)NCc1cocn1)CC2 (centres unmarked) [Compound 22] |
| > 1000 | > 1000 | > 1000 | > 1000 | – | – | – | – | COc1cc2c(cc1OCCc1ccccn1)C(c1ccc(C)cc1C)N(C(=O)NCc1cocn1)CC2 (centres unmarked) [Compound 49] |
| 15900 | 860 | 19800 | 15000 | – | – | – | – | COc1cc2c(cc1OCCc1cccc(O)c1)C(c1c(C)cc(C)cc1O)N(CCC(C)=O)CC2 (centres unmarked) [Compound 10] |
| 790 | 890 | 990 | 870 | – | – | – | – | C=CC(=O)Nc1cc2c(cc1OCCc1cccnc1)C(c1ccc(C)cc1C)N(C(=O)NCc1cocn1)CC2 (centres unmarked) [Compound 45] |
| 1720 | 990 | 1010 | 1000 | – | – | – | – | Cc1ccc(C2c3cc(OCCc4cccnc4)c(F)cc3CCN2C(=O)NCc2cocn2)c(C)c1 (centres unmarked) [Compound 44] |
| 1020 | 980 | 1120 | 1330 | – | – | – | – | COc1cc2c(cc1OCCc1cccc(C(N)=O)c1)C(c1ccc(C)cc1C)N(C(=O)NCc1cocn1)CC2 (centres unmarked) [Compound 27] |
| 3650 | 740 | 19000 | 24500 | – | – | – | – | CCC(=O)CCN1CCc2cc(OC)c(OCCc3cccc(O)c3)cc2C1c1ccccc1C (centres unmarked) [Compound 9] |
| 8990 | 4980 | 16800 | 13600 | – | – | – | – | CCC(=O)CN1CCc2cc(OC)c(OCCc3cccc(O)c3)cc2C1c1ccc(C)cc1Cl (centres unmarked) [Compound 12] |
| 440 | 520 | 310 | 490 | – | – | – | – | Cc1ccc(C2c3cc(OCCc4cccc(O)c4)c(C(=O)O)cc3CCN2C(=O)NCc2cocn2)c(C)c1 (centres unmarked) [Compound 32] |
| 810 | 1210 | 710 | 740 | – | – | – | – | CC(=O)Nc1cc2c(cc1OCCc1cccnc1)C(c1ccc(C)cc1C)N(C(=O)NCc1cocn1)CC2 (centres unmarked) [Compound 37] |

| IC50 [1, 5] [nM] | IC50 [2, 5] [nM] | IC50 [3, 5] [nM] | IC50 [4, 5] [nM] | IC50 [1, 6] [nM] | IC50 [2, 6] [nM] | IC50 [3, 6] [nM] | IC50 [4, 6] [nM] | SMILES |
| --- | --- | --- | --- | --- | --- | --- | --- | --- |
| 2140 | 890 | 2580 | 2130 | – | – | – | – | COc1cc2c(cc1OCCc1ccc3c(c1)CCO3)C(c1ccc(C)cc1C)N(C(=O)NCc1ccncc1)CC2 (centres unmarked) [Compound 15] |
| > 10000 | 3940 | > 10000 | > 30000 | – | – | – | – | COc1cc2c(cc1OCCc1ccc3c(c1)CCC3)C(c1ccc(C)cc1C)N(C(=O)NCc1ccncc1)CC2 (centres unmarked) [Compound 14] |
| 18000 | 1470 | 8520 | 12300 | – | – | – | – | COc1ccc(C2c3cc(OCCc4cccc(O)c4)c(OC)cc3CCN2CCC(C)=O)c(C)c1 (centres unmarked) [Compound 11] |
| 1330 | 900 | 780 | 810 | – | – | – | – | COc1cc2c(cc1OCCc1cccc(F)c1)C(c1ccc(C)cc1C)N(C(=O)NCc1cocn1)CC2 (centres unmarked) [Compound 21] |
| – | – | – | – | 600 | 600 | 600 | 500 | COc1cc2c(cc1OCCc1ccc(C)nc1)C(c1ccc(C)cc1C)N(C(=O)NCc1cocn1)CC2 (centres unmarked) [Compound 57] |
| 6340 | 2410 | 18100 | 24800 | – | – | – | – | CCC(=O)CCN1CCc2cc(OC)c(OCCc3cccc(O)c3)cc2C1c1ccc(C)cc1C (centres unmarked) [Compound 7] |
| 430 | 720 | 390 | 420 | – | – | – | – | Cc1ccc(C2c3cc(OCCc4cccnc4)c(C(N)=O)cc3CCN2C(=O)NCc2cocn2)c(C)c1 (centres unmarked) [Compound 34, 1-(2,4-dimethylphenyl)-N2-(oxazol-4-ylmethyl)-7-(2-(pyridin-3-yl)ethoxy)-3,4-dihydroisoquinoline-2,6(1H)-dicarboxamide] |
| 330 | 320 | 510 | 430 | – | – | – | – | Cc1ccc(C2c3cc(OCCc4cccnc4)c(C(=O)O)cc3CCN2C(=O)NCc2cocn2)c(C)c1 (centres unmarked) [Compound 35] |
| 4820 | 1510 | > 20000 | > 30000 | – | – | – | – | COc1cc2c(cc1OCCc1cccc(O)c1)C(c1c(O)cc(C)cc1Cl)N(CCC(C)=O)CC2 (centres unmarked) [Compound 5] |
| 730 | 990 | 910 | 670 | – | – | – | – | Cc1ccc(C2c3cc(OCCc4cccnc4)c(NC=O)cc3CCN2C(=O)NCc2cocn2)c(C)c1 (centres unmarked) [Compound 36] |
| – | – | – | – | 600 | 500 | 700 | 700 | COc1cnc(CCOc2cc3c(cc2OC)CCN(C(=O)NCc2cocn2)C3c2ccc(C)cc2C)cn1 (centres unmarked) [Compound 63] |
| – | – | – | – | 600 | 500 | 700 | 700 | COc1cncc(CCOc2cc3c(cc2OC)CCN(C(=O)NCc2cocn2)C3c2ccc(C)cc2C)n1 (centres unmarked) [Compound 54] |
| 340 | 410 | 520 | 470 | – | – | – | – | CC(=O)c1cc2c(cc1OCCc1cccnc1)C(c1ccc(C)cc1C)N(C(=O)NCc1cocn1)CC2 (centres unmarked) [Compound 39] |
| 740 | 610 | 910 | 880 | – | – | – | – | Cc1ccc(C2c3cc(OCCc4cccnc4)ccc3CCN2C(=O)NCc2cocn2)c(C)c1 (centres unmarked) [Compound 43] |
| 1560 | 1020 | 1230 | 2010 | – | – | – | – | Cc1ccc(C2c3cc(OCCc4cccc(C(N)=O)c4)c(C(N)=O)cc3CCN2C(=O)NCc2cocn2)c(C)c1 (centres unmarked) [Compound 28] |
| – | – | – | – | 600 | 500 | 700 | 700 | COc1cc2c(cc1OCCc1cncc(C)n1)C(c1ccc(C)cc1C)N(C(=O)NCc1cocn1)CC2 (centres unmarked) [Compound 61] |
| 550 | 580 | 520 | 530 | – | – | – | – | Cc1ccc(C2c3cc(OCCc4cccc(O)c4)c(O)cc3CCN2C(=O)NCc2cocn2)c(C)c1 (centres unmarked) [Compound 25] |
| 820 | 1330 | 960 | 810 | – | – | – | – | CC(=O)Cc1cc2c(cc1OCCc1cccnc1)C(c1ccc(C)cc1C)N(C(=O)NCc1cocn1)CC2 (centres unmarked) [Compound 40] |
| 750 | 600 | 480 | 560 | – | – | – | – | COc1cc2c(cc1OCCc1cccc(O)c1)C(c1ccc(C)cc1C)N(C(=O)NCc1ccccn1)CC2 (centres unmarked) [Compound 20] |
| 740 | 870 | 840 | 660 | – | – | – | – | Cc1ccc(C2c3cc(OCCc4cccc(O)c4)c(C(N)=O)cc3CCN2C(=O)NCc2cocn2)c(C)c1 (centres unmarked) [Compound 24] |
